Assay results taken from ChEMBL document CHEMBL3885881, “DrugMatrix”.

Species on record: Rattus norvegicus
Assay: DrugMatrix - Regimen: Daily Repeat
Type: toxicity, organism-based, Sprague-Dawley
Parameters: regimen Daily Repeat, gender Male, age 6-8 weeks
Conditions: in vivo, iv, 50 mg/kg, dose level Low, vehicle 100 % SALINE; for ABSOLUTE BASOPHIL / ABSOLUTE EOSINOPHIL / ABSOLUTE LYMPHOCYTE / ABSOLUTE MONOCYTE / ABSOLUTE SEGMENTED NEUTROPHIL / BASOPHIL / EOSINOPHIL / ERYTHROCYTE COUNT / HEMATOCRIT / HEMOGLOBIN / LEUKOCYTE COUNT / LYMPHOCYTE / MEAN CORPUSCULAR HEMOGLOBIN / MEAN CORPUSCULAR HEMOGLOBIN CONCENTRATION / MEAN CORPUSCULAR VOLUME / MONOCYTE / NEUTROPHIL / NUCLEATED RED BLOOD CELLS / PLATELET COUNT: tissue Blood; for ALANINE AMINOTRANSFERASE / ALBUMIN / ALKALINE PHOSPHATASE / ASPARTATE AMINOTRANSFERASE / BLOOD UREA NITROGEN / CARBON DIOXIDE / CHLORIDE / CHOLESTEROL / CREATINE PHOSPHOKINASE / CREATININE / GLUCOSE / LACTATE DEHYDROGENASE / LIPASE / PHOSPHORUS / POTASSIUM / SODIUM / TOTAL BILIRUBIN / TOTAL PROTEIN / URIC ACID: tissue Plasma

CC1(C)S[C@@H]2[C@H](NC(=O)Cc3ccccc3)C(=O)N2[C@H]1C(=O)O [PENICILLIN G]
ABSOLUTE BASOPHIL (72 h, time 3 day): 0 CELLS/uL
ABSOLUTE EOSINOPHIL (72 h, time 3 day): 74.67 CELLS/uL
ABSOLUTE LYMPHOCYTE (72 h, time 3 day): 13141.67 CELLS/uL
ABSOLUTE MONOCYTE (72 h, time 3 day): 398.33 CELLS/uL
ABSOLUTE SEGMENTED NEUTROPHIL (72 h, time 3 day): 1318.67 CELLS/uL
BASOPHIL (72 h, time 3 day): 0%
EOSINOPHIL (72 h, time 3 day): 0.67%
ERYTHROCYTE COUNT (72 h, time 3 day): 5.85 x10E6/uL
HEMATOCRIT (72 h, time 3 day): 37.47%
HEMOGLOBIN (72 h, time 3 day): 13.8 G/DL
LEUKOCYTE COUNT (72 h, time 3 day): 14.93 x10E3/uL
LYMPHOCYTE (72 h, time 3 day): 87.67%
MEAN CORPUSCULAR HEMOGLOBIN (72 h, time 3 day): 23.6 pg
MEAN CORPUSCULAR HEMOGLOBIN CONCENTRATION (72 h, time 3 day): 36.87 G/DL
MEAN CORPUSCULAR VOLUME (72 h, time 3 day): 64.07 fL
MONOCYTE (72 h, time 3 day): 2.67%
NEUTROPHIL (72 h, time 3 day): 9%
NUCLEATED RED BLOOD CELLS (72 h, time 3 day): 0 /100WBC
PLATELET COUNT (72 h, time 3 day): 1362 x10E3/uL
ALANINE AMINOTRANSFERASE (72 h, time 3 day): 56.33 u/L
ALBUMIN (72 h, time 3 day): 4.37 G/DL
ALKALINE PHOSPHATASE (72 h, time 3 day): 354 u/L
ASPARTATE AMINOTRANSFERASE (72 h, time 3 day): 76.67 u/L
BLOOD UREA NITROGEN (72 h, time 3 day): 13.33 mg/dL
CARBON DIOXIDE (72 h, time 3 day): 24.33 mmol/L
CHLORIDE (72 h, time 3 day): 103.67 MEQ/L
CHOLESTEROL (72 h, time 3 day): 82.67 mg/dL
CREATINE PHOSPHOKINASE (72 h, time 3 day): 122 u/L
CREATININE (72 h, time 3 day): 0.21 mg/dL
GLUCOSE (72 h, time 3 day): 172 mg/dL
LACTATE DEHYDROGENASE (72 h, time 3 day): 124 u/L
LIPASE (72 h, time 3 day): 10 u/L
PHOSPHORUS (72 h, time 3 day): 12.63 mg/dL
POTASSIUM (72 h, time 3 day): 6.23 MEQ/L
SODIUM (72 h, time 3 day): 146.33 MEQ/L
TOTAL BILIRUBIN (72 h, time 3 day): 0.23 mg/dL
TOTAL PROTEIN (72 h, time 3 day): 6.07 G/DL
URIC ACID (72 h, time 3 day): 1.57 mg/dL
ABSOLUTE BASOPHIL (120 h, time 5 day): 0 CELLS/uL
ABSOLUTE EOSINOPHIL (120 h, time 5 day): 0 CELLS/uL
ABSOLUTE LYMPHOCYTE (120 h, time 5 day): 11488.33 CELLS/uL
ABSOLUTE MONOCYTE (120 h, time 5 day): 166 CELLS/uL
ABSOLUTE SEGMENTED NEUTROPHIL (120 h, time 5 day): 512.33 CELLS/uL
BASOPHIL (120 h, time 5 day): 0%
EOSINOPHIL (120 h, time 5 day): 0%
ERYTHROCYTE COUNT (120 h, time 5 day): 5.58 x10E6/uL
HEMATOCRIT (120 h, time 5 day): 36.13%
HEMOGLOBIN (120 h, time 5 day): 13.43 G/DL
LEUKOCYTE COUNT (120 h, time 5 day): 12.17 x10E3/uL
LYMPHOCYTE (120 h, time 5 day): 94.33%
MEAN CORPUSCULAR HEMOGLOBIN (120 h, time 5 day): 24.07 pg
MEAN CORPUSCULAR HEMOGLOBIN CONCENTRATION (120 h, time 5 day): 37.17 G/DL
MEAN CORPUSCULAR VOLUME (120 h, time 5 day): 64.8 fL
MONOCYTE (120 h, time 5 day): 1.33%
NEUTROPHIL (120 h, time 5 day): 4.33%
NUCLEATED RED BLOOD CELLS (120 h, time 5 day): 0 /100WBC
PLATELET COUNT (120 h, time 5 day): 1442 x10E3/uL
ALANINE AMINOTRANSFERASE (120 h, time 5 day): 49.33 u/L
ALBUMIN (120 h, time 5 day): 4.27 G/DL
ALKALINE PHOSPHATASE (120 h, time 5 day): 371 u/L
ASPARTATE AMINOTRANSFERASE (120 h, time 5 day): 81.33 u/L
BLOOD UREA NITROGEN (120 h, time 5 day): 15.33 mg/dL
CARBON DIOXIDE (120 h, time 5 day): 21.67 mmol/L
CHLORIDE (120 h, time 5 day): 107 MEQ/L
CHOLESTEROL (120 h, time 5 day): 79.33 mg/dL
CREATINE PHOSPHOKINASE (120 h, time 5 day): 245.67 u/L
CREATININE (120 h, time 5 day): 0.42 mg/dL
GLUCOSE (120 h, time 5 day): 151.67 mg/dL
LACTATE DEHYDROGENASE (120 h, time 5 day): 117.67 u/L
LIPASE (120 h, time 5 day): 11.5 u/L
PHOSPHORUS (120 h, time 5 day): 12.33 mg/dL
POTASSIUM (120 h, time 5 day): 6.79 MEQ/L
SODIUM (120 h, time 5 day): 144.2 MEQ/L
TOTAL BILIRUBIN (120 h, time 5 day): 0.23 mg/dL
TOTAL PROTEIN (120 h, time 5 day): 6.07 G/DL
URIC ACID (120 h, time 5 day): 2 mg/dL
